This note sets out measurements from ChEMBL document CHEMBL5291721, “A preclinical secondary pharmacology resource illuminates target-adverse drug reaction associations of marketed drugs” (Nat Commun, 2023).

In assay [1] the target is D(3) dopamine receptor (Homo sapiens, UniProt P35462).
Assay [2] has as its target T1, 5-hydroxytryptamine receptor 2B (Homo sapiens, UniProt P41595). It is filed as functional, cell-based.
For assay [3], the target named is T1, 5-hydroxytryptamine receptor 2B. Type of assay: functional, cell-based. The source holds these as a separate data set.
Assay [4] has as its target Histamine H1 receptor (Homo sapiens, UniProt P35367).
The target of assay [5] is Sodium-dependent serotonin transporter (Homo sapiens, UniProt P31645).
Sodium-dependent serotonin transporter, sequence (P31645 whole entry): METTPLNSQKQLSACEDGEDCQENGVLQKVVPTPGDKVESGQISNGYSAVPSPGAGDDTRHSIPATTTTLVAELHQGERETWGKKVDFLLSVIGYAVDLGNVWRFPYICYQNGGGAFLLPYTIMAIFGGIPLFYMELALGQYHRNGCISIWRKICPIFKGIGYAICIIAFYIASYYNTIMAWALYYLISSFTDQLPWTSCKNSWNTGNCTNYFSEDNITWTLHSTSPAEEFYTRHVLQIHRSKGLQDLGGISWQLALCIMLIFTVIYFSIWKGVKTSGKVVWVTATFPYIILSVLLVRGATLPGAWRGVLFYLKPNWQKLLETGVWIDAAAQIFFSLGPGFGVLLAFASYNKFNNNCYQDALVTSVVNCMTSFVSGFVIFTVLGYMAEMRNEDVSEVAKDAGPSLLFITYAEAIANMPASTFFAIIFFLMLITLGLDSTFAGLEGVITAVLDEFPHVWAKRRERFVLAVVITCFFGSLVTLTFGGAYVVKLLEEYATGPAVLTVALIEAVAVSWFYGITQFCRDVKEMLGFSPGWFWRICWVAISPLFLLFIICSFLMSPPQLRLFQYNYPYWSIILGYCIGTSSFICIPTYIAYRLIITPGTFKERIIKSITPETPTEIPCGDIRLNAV
The target in assay [6] is T2, Neuropeptide Y receptor type 1 (Homo sapiens, UniProt P25929).
T2 sequence (P25929 whole entry): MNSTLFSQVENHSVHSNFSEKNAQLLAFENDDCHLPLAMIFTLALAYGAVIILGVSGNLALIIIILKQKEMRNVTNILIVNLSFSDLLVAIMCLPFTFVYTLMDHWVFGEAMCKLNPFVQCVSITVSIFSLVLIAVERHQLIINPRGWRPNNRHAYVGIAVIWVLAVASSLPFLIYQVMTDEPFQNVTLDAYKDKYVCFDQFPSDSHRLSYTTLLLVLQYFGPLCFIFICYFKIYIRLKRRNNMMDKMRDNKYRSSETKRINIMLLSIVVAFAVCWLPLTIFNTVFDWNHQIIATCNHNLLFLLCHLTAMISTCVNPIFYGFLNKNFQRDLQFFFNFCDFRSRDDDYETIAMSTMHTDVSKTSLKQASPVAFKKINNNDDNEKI

The target in assay [7] is T3, Alpha-2C adrenergic receptor (Homo sapiens, UniProt P18825).
T3 sequence (P18825 whole entry): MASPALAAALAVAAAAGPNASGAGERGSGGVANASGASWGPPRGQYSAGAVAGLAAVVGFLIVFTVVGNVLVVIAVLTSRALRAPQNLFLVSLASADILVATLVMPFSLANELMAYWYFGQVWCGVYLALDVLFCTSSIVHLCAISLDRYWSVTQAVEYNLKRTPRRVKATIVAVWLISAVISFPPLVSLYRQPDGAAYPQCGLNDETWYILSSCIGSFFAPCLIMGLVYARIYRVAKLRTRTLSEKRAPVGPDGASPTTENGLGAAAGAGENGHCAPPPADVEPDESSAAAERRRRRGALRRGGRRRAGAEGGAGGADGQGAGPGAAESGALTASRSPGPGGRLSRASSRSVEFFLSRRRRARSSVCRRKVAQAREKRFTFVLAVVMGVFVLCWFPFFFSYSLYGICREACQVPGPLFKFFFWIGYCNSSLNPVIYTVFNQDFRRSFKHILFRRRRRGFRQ
It is filed as functional.

Assay [8] concerns the target Beta-1 adrenergic receptor (Homo sapiens, UniProt P08588). Type of assay: functional.
Assay [9] concerns the target 5-hydroxytryptamine receptor 2A (Homo sapiens, UniProt P28223). It is filed as functional, cell-based.
For assay [10], the target named is Voltage-gated inwardly rectifying potassium channel KCNH2 (Homo sapiens, UniProt Q12809). It is filed as functional. The following applies: read-out: AC50.
The target of assay [11] is T4, Equilibrative nucleoside transporter 1 (Homo sapiens, UniProt Q99808).
T4 sequence (Q99808 whole entry): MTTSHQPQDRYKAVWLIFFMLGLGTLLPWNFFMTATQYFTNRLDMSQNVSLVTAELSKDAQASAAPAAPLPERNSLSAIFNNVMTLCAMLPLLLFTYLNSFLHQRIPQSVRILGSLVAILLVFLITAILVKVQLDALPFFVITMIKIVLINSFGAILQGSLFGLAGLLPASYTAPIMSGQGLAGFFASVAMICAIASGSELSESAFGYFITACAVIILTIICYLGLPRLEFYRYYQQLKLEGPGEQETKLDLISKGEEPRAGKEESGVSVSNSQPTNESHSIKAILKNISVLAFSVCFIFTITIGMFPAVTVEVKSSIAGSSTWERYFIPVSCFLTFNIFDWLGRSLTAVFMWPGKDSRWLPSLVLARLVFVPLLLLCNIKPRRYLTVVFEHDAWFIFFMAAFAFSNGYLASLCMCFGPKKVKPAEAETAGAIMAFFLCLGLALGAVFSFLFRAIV

The target in assay [12] is cGMP-inhibited 3',5'-cyclic phosphodiesterase 3A (Homo sapiens, UniProt Q14432). Type of assay: functional.
cGMP-inhibited 3',5'-cyclic phosphodiesterase 3A, sequence (Q14432 whole entry): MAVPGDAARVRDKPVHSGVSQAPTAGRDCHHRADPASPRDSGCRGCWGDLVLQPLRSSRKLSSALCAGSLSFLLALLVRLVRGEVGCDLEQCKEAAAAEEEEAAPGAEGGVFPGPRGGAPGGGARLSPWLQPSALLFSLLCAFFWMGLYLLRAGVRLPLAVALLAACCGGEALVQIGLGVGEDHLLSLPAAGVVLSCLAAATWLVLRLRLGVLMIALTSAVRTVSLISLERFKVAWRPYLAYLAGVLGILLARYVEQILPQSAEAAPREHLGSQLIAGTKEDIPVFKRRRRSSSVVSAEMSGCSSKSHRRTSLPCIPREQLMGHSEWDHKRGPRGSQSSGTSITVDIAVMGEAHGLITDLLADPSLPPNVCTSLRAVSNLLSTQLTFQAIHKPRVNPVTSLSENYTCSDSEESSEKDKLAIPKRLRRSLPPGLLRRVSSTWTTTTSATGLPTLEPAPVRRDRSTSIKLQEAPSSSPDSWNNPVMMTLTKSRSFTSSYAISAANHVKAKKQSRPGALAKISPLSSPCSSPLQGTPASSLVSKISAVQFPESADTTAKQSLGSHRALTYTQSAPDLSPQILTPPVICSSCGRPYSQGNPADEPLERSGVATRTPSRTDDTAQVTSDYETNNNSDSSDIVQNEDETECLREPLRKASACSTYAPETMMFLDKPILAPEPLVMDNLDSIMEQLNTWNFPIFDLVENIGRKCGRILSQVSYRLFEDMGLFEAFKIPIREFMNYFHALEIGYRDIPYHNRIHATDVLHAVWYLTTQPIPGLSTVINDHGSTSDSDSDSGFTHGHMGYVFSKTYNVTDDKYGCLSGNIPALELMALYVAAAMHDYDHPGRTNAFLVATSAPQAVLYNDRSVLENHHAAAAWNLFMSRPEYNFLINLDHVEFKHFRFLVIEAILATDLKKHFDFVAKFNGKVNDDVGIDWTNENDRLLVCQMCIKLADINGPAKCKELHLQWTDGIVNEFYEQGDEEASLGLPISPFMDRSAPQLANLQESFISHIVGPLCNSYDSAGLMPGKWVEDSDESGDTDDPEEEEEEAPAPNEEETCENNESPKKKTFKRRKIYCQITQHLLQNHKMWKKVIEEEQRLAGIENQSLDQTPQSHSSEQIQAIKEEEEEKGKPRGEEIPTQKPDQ
In assay [13] the target is T5, Alpha-2B adrenergic receptor (Homo sapiens, UniProt P18089).
T5 sequence (P18089 whole entry): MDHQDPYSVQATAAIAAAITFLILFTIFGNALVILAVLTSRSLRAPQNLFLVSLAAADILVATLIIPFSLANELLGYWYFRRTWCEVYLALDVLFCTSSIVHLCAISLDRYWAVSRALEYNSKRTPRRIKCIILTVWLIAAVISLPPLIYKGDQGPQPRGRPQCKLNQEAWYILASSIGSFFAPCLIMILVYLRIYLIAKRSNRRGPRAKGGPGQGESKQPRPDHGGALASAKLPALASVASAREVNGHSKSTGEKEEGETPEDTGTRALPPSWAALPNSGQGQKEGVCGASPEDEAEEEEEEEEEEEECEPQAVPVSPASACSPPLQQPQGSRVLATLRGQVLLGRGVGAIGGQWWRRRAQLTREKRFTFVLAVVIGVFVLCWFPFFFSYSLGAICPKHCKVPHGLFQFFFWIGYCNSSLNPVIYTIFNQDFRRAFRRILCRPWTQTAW

Assay [14] addresses Kappa-type opioid receptor (Homo sapiens, UniProt P41145).
Further: assay procedure not described here.

D(3) dopamine receptor, sequence (P35462 whole entry): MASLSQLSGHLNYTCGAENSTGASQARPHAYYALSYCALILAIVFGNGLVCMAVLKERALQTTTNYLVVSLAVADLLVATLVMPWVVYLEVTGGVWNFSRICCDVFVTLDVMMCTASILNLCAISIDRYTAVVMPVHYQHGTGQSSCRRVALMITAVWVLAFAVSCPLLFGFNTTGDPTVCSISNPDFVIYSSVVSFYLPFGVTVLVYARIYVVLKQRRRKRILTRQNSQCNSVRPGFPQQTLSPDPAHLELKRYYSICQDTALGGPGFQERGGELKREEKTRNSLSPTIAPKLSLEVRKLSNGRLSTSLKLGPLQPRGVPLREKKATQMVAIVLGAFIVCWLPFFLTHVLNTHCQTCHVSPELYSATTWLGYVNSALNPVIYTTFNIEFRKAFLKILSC
T1 sequence (P41595 whole entry): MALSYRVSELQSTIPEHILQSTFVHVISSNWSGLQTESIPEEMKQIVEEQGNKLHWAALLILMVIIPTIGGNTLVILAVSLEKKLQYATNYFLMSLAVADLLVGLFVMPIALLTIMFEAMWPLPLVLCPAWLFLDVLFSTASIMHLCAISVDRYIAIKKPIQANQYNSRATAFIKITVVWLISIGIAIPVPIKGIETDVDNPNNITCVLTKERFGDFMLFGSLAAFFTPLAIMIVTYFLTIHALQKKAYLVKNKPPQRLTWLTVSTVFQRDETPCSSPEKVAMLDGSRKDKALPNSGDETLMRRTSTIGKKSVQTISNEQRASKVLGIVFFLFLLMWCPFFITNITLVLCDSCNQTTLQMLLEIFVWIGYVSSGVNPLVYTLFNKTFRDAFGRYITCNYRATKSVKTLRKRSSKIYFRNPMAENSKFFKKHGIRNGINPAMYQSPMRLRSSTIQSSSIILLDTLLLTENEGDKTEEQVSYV
Histamine H1 receptor, sequence (P35367 whole entry): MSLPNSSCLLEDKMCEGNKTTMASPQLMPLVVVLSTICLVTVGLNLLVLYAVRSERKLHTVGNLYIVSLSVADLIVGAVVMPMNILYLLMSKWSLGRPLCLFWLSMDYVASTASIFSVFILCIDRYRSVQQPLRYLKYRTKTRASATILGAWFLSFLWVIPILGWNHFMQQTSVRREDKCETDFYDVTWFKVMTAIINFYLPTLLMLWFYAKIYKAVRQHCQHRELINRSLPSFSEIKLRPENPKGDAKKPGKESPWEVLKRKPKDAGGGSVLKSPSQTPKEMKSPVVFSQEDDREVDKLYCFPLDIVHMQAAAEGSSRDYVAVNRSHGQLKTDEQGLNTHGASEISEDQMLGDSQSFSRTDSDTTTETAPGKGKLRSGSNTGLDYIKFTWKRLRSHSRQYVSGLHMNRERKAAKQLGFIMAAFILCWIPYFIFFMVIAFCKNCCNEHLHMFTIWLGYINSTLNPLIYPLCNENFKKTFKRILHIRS
Beta-1 adrenergic receptor, sequence (P08588 whole entry): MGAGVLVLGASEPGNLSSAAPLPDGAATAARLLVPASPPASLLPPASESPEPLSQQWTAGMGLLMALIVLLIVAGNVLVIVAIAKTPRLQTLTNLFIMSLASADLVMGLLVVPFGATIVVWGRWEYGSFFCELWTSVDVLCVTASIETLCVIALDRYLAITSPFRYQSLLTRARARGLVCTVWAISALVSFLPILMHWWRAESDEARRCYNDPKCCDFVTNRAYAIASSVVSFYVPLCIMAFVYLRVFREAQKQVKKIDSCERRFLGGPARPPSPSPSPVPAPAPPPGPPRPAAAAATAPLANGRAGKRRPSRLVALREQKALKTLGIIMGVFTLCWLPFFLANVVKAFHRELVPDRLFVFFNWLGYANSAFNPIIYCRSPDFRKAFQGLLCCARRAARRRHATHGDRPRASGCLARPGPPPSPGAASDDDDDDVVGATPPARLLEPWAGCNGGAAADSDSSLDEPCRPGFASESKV
5-hydroxytryptamine receptor 2A, sequence (P28223 whole entry): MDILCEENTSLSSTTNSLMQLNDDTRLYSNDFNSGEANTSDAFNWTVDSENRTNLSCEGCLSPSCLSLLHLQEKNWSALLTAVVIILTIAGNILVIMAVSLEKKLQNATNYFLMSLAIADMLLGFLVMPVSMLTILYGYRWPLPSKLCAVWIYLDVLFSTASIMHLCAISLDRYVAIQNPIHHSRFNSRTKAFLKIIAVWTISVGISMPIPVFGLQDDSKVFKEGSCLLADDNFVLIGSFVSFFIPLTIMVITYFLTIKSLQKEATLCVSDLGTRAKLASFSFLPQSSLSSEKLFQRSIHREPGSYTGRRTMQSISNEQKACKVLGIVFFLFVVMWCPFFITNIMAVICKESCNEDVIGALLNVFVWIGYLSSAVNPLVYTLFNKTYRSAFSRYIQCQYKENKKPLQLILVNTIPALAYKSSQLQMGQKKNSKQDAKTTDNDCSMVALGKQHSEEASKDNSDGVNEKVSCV
Kappa-type opioid receptor, sequence (P41145 whole entry): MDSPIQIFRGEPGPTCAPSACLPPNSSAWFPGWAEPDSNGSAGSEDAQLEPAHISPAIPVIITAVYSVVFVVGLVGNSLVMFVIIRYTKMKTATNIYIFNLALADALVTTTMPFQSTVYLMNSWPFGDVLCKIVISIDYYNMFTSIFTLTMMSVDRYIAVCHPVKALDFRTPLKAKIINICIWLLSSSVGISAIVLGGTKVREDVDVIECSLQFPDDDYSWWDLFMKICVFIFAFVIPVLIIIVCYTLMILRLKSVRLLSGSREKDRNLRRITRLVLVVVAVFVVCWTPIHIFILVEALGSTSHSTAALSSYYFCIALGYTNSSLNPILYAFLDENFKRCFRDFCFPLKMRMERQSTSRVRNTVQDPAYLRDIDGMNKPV

In the case of `CC(=O)OCC(=O)[C@@]1(O)CC[C@H]2[C@@H]3CCC4=CC(=O)CC[C@]4(C)C3=CC[C@@]21C` [ANECORTAVE ACETATE], the AC50 in assay [1] was more than 30 µM; in assay [2], more than 10 µM; in [3] it was more than 10 µM; in [4], more than 10 µM; in [5], more than 10 µM; in assay [6], more than 10 µM. The AC50 in [7] is more than 10 µM; in [8], more than 10 µM; in [9], more than 10 µM; in assay [10], more than 30 µM; in [11], more than 10 µM; in [12], more than 30 µM. Moreover, the AC50 in assay [13] and in [14] was more than 10 µM in each case.

Take `NS(=O)(=O)c1cc2c(cc1C(F)(F)F)NC(Cc1ccccc1)NS2(=O)=O` (centres undefined) [BENDROFLUMETHIAZIDE]: the AC50 in [1] was more than 30 µM; in assay [2] it was more than 10 µM; in [3], more than 10 µM; in assay [4], more than 10 µM; in assay [5], more than 30 µM; in assay [6] it was more than 10 µM. Moreover, the AC50 was more than 10 µM in assay [7]; more than 10 µM in assay [8]; more than 10 µM in assay [9]; more than 30 µM in [10]; more than 30 µM in assay [11]; more than 30 µM in assay [12]. The AC50 in [13] and in assay [14] was more than 10 µM in each case.

Regarding `O=C(CCCN1CCC(n2c(O)nc3ccccc32)CC1)c1ccc(F)cc1` [BENPERIDOL], the AC50 was 0.0053 µM in assay [1]; more than 30 µM in assay [2]; 6.59 µM in assay [3]; 0.73 µM in [4]; more than 30 µM in [5]; more than 30 µM in assay [6]. Also, the AC50 is 1.9 µM in [7]; 8.5 µM in [8]; more than 30 µM in [9]; 0.11 µM in assay [10]; more than 30 µM in assay [11]; more than 30 µM in assay [12]. Also, the AC50 in assay [13] was found to be 0.85 µM; in assay [14], 1.15 µM.

Take `CCN(CC)C(=O)C1CN2CCc3cc(OC)c(OC)cc3C2CC1OC(C)=O` (centres undefined) [BENZQUINAMIDE]: the AC50 in assay [1] was 14.4 µM; in assay [2], more than 30 µM; in assay [3], 0.32 µM; in assay [4], more than 30 µM; in assay [5] it was more than 30 µM; in assay [6], more than 30 µM. Further, the AC50 in assay [7] is 1.7 µM; in [8], more than 30 µM; in [9], more than 30 µM; in assay [10], more than 30 µM; in assay [11] it was more than 30 µM; in assay [12] it was more than 30 µM. Further, the figures for the AC50 in assay [13] and in assay [14] were 1.03 µM and more than 30 µM, respectively.

Take `CCC(=O)OCC(=O)[C@@]1(OC(=O)CC)[C@@H](C)C[C@H]2[C@@H]3CCC4=CC(=O)C=C[C@]4(C)[C@@]3(F)[C@@H](O)C[C@@]21C` [BETAMETHASONE DIPROPIONATE]: the half-maximal activity concentration (AC50) in [1], in assay [2], in assay [3], in [4], in assay [5] and in assay [6] was more than 30 µM each time. Besides, the AC50 in [7], in assay [8], in assay [9], in [10], in [11] and in assay [12] was more than 30 µM in each case. The half-maximal activity concentration (AC50) in [13] and in assay [14] was more than 30 µM in each case.

As for `CCCCC1(CC)C(=O)NC(=O)NC1=O` [BUTETHAL], the AC50 in assay [1], in assay [2], in assay [3], in assay [4], in assay [5] and in assay [6] was more than 30 µM each time. Besides, the AC50 in assay [7], in assay [8], in assay [9], in assay [10], in [11] and in [12] was more than 30 µM throughout. The AC50 in assay [13] and in assay [14] was more than 30 µM in each case.
